From US9808528B2, “Protein-polymer-drug conjugates and methods of using same” (priority 2014, dated 2017)
Where “and” joins values, the source holds several entries; their conditions need not be identical. Equal entries are not always repeated.

Assays:
JIMT-1 cells = assay: Tumor growth response, JIMT-1 xenograft; type: in vivo, mice; conditions: for tumor volume response (in words), FIG. 4A: Example 14 at 2, 0.67 and 0.3 mg/kg, trastuzumab 20 mg/kg, Kadcyla 20 mg/kg
Method: (§1) Female CB-17 SCID mice were inoculated subcutaneously with BT474 tumor fragments (n=10 for each group) or JIMT-1 cells (n=10 for each group) or NCI-N87 cells (n=10 for each group). […] Test compounds or vehicle were dosed IV as a single dose on day 1. Tumor size was measured at the times indicated in FIGS. 1 to 6 using digital calipers. Tumor volume was calculated and was used to determine the delay in tumor growth. Mice were sacrificed when tumors reached a size of 800 to 1500 mm^3. Tumor volumes are reported as the mean±SEM (“standard error of mean”) for each group.

SKBR3 = assay: Cell viability assay (Cell Titer-Glo); type: cell-based; conditions: 72 h incubation; AF-HPA as toxin equivalents
Method: (§2) PBRM-polymer-drug conjugates were evaluated for their antiproliferation properties in tumor cell lines in vitro using Cell Titer-Glo (Promega Corp). Cells were plated in black walled 96-well plate and allowed to adhere overnight at 37° C. in a humidified atmosphere of 5% CO2. SKBR3, BT474, NCI-N87 cells (HER2 expressing cells), MCF7 cells (HER2 low expressing levels cells) and JIMT1 cells (HER2 medium expression level cells) were plated at a density of 5,000 cells per well. The next day the medium was replaced with 50 μL fresh medium and 50 μL of 2× stocks of PBRM-polymer-drug conjugate, drug polymer conjugate or drug were added to appropriate wells, mixed and incubated for 72 h. Cell Titer-Glo reagent was added to the wells at room temperature and the luminescent signal was measured after 10 min using a SpectraMax M5 plate reader (Molecular Devices). Dose response curves were generated using SoftMax Pro software. IC50 values were determined from four-parameter curve fitting.

MCF7 = assay: Cell viability assay (Cell Titer-Glo); type: cell-based; conditions: 72 h incubation; HER2 low expressing cells; AF-HPA as toxin equivalents
Method: as §2

JIMT1 = assay: Cell viability assay (Cell Titer-Glo); type: cell-based; conditions: 72 h incubation; HER2 medium expression level cells; AF-HPA as toxin equivalents
Method: as §2

BT474 [1] = assay: Cell viability assay (Cell Titer-Glo); type: cell-based, human; conditions: 72 h incubation; AF-HPA as toxin equivalents
Method: as §2

hErbB2 = hErbB2 (Homo sapiens, UniProt P04626); assay: Ligand binding studies by BIAcore surface plasmon resonance (SPR); conditions: 25° C.; immobilized hErbB2; BioRad ProteOn XPR36
Method: The kinetic binding of the PBRM-polymer-drug conjugate to an immobilized receptor is determined by BIAcore SPR. The binding constants for the PBRM in the PBRM-polymer-drug conjugate and PBRM alone can be determined using standard BIAcore procedures.
The kinetic binding of the PBRM-polymer-drug conjugate to an immobilized receptor was determined by BIAcore SPR.

N87 = assay: Cell viability assay (Cell Titer-Glo); type: cell-based; conditions: 72 h incubation; AF-HPA as toxin equivalents
Method: as §2

NCI-N87 cells = assay: Tumor growth response, NCI-N87 xenograft; type: in vivo, mice
Method: as §1

HCC38 = assay: Cytotoxicity assay (CellTiter-Glo); type: cell-based, human; conditions: HER2 molecules per cell 36,000; Her2 expression 2+; 72 hours or 6 days
Method: (§3) ZR75-1 (human breast cancer cell line, not amplified, ATCC, Cat.# CRL-1500), was cultured in RPMI-1640 Medium. HCC1187 (human breast cancer cell line, not amplified, ATCC, Cat.# CRL-2322), was cultured in RPMI-1640 Medium. HCC38 (human breast cancer cell line, not amplified, ATCC, Cat.# CRL-2314), was cultured in RPMI-1640 Medium. T47D (human breast cancer cell line, not amplified, ATCC, Cat.# HTB-133), was cultured in RPMI-1640 Medium. MDA-MB-231 (human breast cancer cell line, not amplified, ATCC, Cat.# HTB-26), was cultured in DMEM Medium.
(§4) For the cytotoxicity assay, cells were seeded at a density of 3000 cells per well in 96 well plates and allowed to attach during overnight incubation at 37° C. in the presence of 5% CO2.

BT474 [2] = assay: Cytotoxicity assay (CellTiter-Glo); type: cell-based, human; conditions: HER2 molecules per cell 860,000; Her2 expression 3+; 72 hours or 6 days
Method: (§5) OVCAR3 (ovarian adenocarcinoma, not amplified, ATCC, Cat# HTB-161) was cultured in RPMI medium with 20% FBS. […] MKN-45 III (human gastric adenocarcinoma cell line, not amplified, DSMZ, Braunschweig, Germany, Cat.# ACC409) was cultured in RPMI-1640 Medium, (ATCC, Cat#30-2001). SKOV3 (human ovary adenocarcinoma cell line ATCC, Cat.# HTB-77), was cultured in McCoy's 5a Medium.
as §4

NCI-H522 = assay: Cytotoxicity assay (CellTiter-Glo); type: cell-based; conditions: HER2 molecules per cell 25,000; Her2 expression 1+; 72 hours or 6 days
Method: (§6) NCI-H1581 (non-small cell lung carcinoma medium expressing cell line, not amplified, ATCC, Cat.# CRL-5878) cells were cultured in DMEM:F12 medium (ATCC, Cat#30-2006). […] CALU3 (human lung adenocarcinoma cell line, ATCC, Cat# HTB-55) was cultured in ATCC-formulated Eagle's Minimum Essential Medium. […] NCI-H2122 (human lung adenocarcinoma cell line, not amplified, ATCC, Cat# CRL-5985) was cultured in RPMI-1640 Medium, (ATCC, Cat#30-2001).
as §4

NCI-H460 = assay: Cytotoxicity assay (CellTiter-Glo); type: cell-based, human; conditions: HER2 molecules per cell 4,000; Her2 expression 1+; 72 hours or 6 days
Method: (§7) A549 (human lung carcinoma cell line, not amplified, ATCC, Cat# CCL-185) was cultured in F12K Medium. […] NCI-H460 (human lung carcinoma cell line, not amplified, ATCC, Cat.# HTB-177) was cultured in RPMI-1640 Medium, (ATCC, Cat.#30-2001). SHP-77 (human small cell lung cancer cell line, not amplified, ATCC, Cat.# CRL-2195) was cultured in RPMI-1640 Medium, (ATCC, Cat#30-2001).
as §4

SKOV3 = assay: Cytotoxicity assay (CellTiter-Glo); type: cell-based, human; conditions: HER2 molecules per cell 220,000; Her2 expression 3+; 72 hours or 6 days
Method: as §5, §4

OVCAR3 = assay: Cytotoxicity assay (CellTiter-Glo); type: cell-based; conditions: HER2 molecules per cell 7,200; Her2 expression 1+; 72 hours or 6 days
Method: as §5, §4

SNU5 = assay: Cytotoxicity assay (CellTiter-Glo); type: cell-based; conditions: HER2 molecules per cell 22,000; Her2 expression 1+; 72 hours or 6 days
Method: as §7, §4

NCI-H1581 = assay: Cytotoxicity assay (CellTiter-Glo); type: cell-based; conditions: HER2 molecules per cell 13,000; Her2 expression 1+; 72 hours or 6 days
Method: as §6, §4

NCI-H2122 = assay: Cytotoxicity assay (CellTiter-Glo); type: cell-based, human; conditions: HER2 molecules per cell 12,000; Her2 expression 1+; 72 hours or 6 days
Method: as §6, §4

KATOIII = assay: Cytotoxicity assay (CellTiter-Glo); type: cell-based, human; conditions: HER2 molecules per cell 19,000; Her2 expression 1+; 72 hours or 6 days
Method: as §7, §4

MDA-MB-175VII = assay: Cytotoxicity assay (CellTiter-Glo); type: cell-based, human; conditions: read-out: IC50 MDA-MB-175VII; HER2 molecules per cell 51,000; Her2 expression 1+; 72 hours or 6 days
Method: (§8) MDA-MB-175-VII (human breast cancer cell line, not amplified, ATCC, Cat.# HTB-25), was cultured in Leibovitz's L-15 Medium with 20% FBS. CAMA-1 (human breast cancer cell line, not amplified, ATCC, Cat.# HTB-21), was cultured in 90% ATCC-formulated Eagle's Minimum Essential Medium.
as §4

NCI-H2170 = assay: Cytotoxicity assay (CellTiter-Glo); type: cell-based; conditions: HER2 molecules per cell 660,000; Her2 expression 3+; 72 hours or 6 days
Method: as §6, §4

MKN45 = assay: Cytotoxicity assay (CellTiter-Glo); type: cell-based, human; conditions: HER2 molecules per cell 16,000; Her2 expression 1+; 72 hours or 6 days
Method: as §5, §4

T47D = assay: Cytotoxicity assay (CellTiter-Glo); type: cell-based, human; conditions: HER2 molecules per cell 20,000; Her2 expression 1+; 72 hours or 6 days
Method: as §3, §4

ZR75-1 = assay: Cytotoxicity assay (CellTiter-Glo); type: cell-based, human; conditions: HER2 molecules per cell 40,000; Her2 expression 1+; 72 hours or 6 days
Method: as §3, §4

MDA-MB-231 = assay: Cytotoxicity assay (CellTiter-Glo); type: cell-based, human; conditions: HER2 molecules per cell 5400; Her2 expression 1+; 72 hours or 6 days
Method: as §3, §4

A549 = assay: Cytotoxicity assay (CellTiter-Glo); type: cell-based, human; conditions: HER2 molecules per cell 6,000; Her2 expression 1+; 72 hours or 6 days
Method: as §7, §4

JIMT-1 = conditions: read-out: IC50 JIMT-1; HER2 molecules per cell 80,000; Her2 expression 2+; 72 hours or 6 days
MDA-MB-361 = assay: Cytotoxicity assay (CellTiter-Glo); type: cell-based, human; conditions: HER2 molecules per cell 135,000; Her2 expression 2+; 72 hours or 6 days
Method: as §8, §4

NCI-N87 = assay: Cytotoxicity assay (CellTiter-Glo); type: cell-based; conditions: HER2 molecules per cell 700,000; Her2 expression 3+; 72 hours or 6 days
Method: as §4

HCC1187 = assay: Cytotoxicity assay (CellTiter-Glo); type: cell-based, human; conditions: HER2 molecules per cell 38,000; Her2 expression 2+; 72 hours or 6 days
Method: as §3, §4

CALU3 = assay: Cytotoxicity assay (CellTiter-Glo); type: cell-based, human; conditions: HER2 molecules per cell 330,000; Her2 expression 3+; 72 hours or 6 days
Method: as §6, §4

MDA-MB-453 = assay: Cytotoxicity assay (CellTiter-Glo); type: cell-based; conditions: HER2 molecules per cell 125,000; Her2 expression 2+; 72 hours or 6 days
TOV21G = assay: Cytotoxicity assay (CellTiter-Glo); type: cell-based, human; conditions: HER2 molecules per cell 12,000; Her2 expression 1+; 72 hours or 6 days
Method: as §5, §4

SHP-77 = assay: Cytotoxicity assay (CellTiter-Glo); type: cell-based, human; conditions: HER2 molecules per cell 0; 72 hours or 6 days
Method: as §7, §4

CAMA-1 = assay: Cytotoxicity assay (CellTiter-Glo); type: cell-based, human; conditions: HER2 molecules per cell 50,000; Her2 expression 1+; 72 hours or 6 days
Method: as §8, §4

BT474 tumor fragments = assay: Tumor growth response, BT474 xenograft; type: in vivo, mice
Method: as §1

HL-60 = assay: Cell viability assay (Cell Titer-Glo); type: cell-based
Method: Dose response curves were generated using SoftMax Pro software. IC50 values were determined from four-parameter curve fitting.
CD33 expressing cells HL-60 were passed at a density of 5,000 cells per well and treated with PBRM-polymer-drug conjugate on the same day. After 72 h or 6 days incubation, the cells were analyzed using the same procedure described above.

HL-60 cells = assay: Tumor growth response, HL-60 xenograft; type: in vivo, mice
Method: Female NCr nu/nu mice were inoculated subcutaneously with HL-60 cells (n=10 for each group). Test compounds or vehicle were dosed IV as a single dose on day 1. Tumor size was measured at the times indicated in FIGS. 1 to 6 using digital calipers. Tumor volume was calculated and was used to determine the delay in tumor growth. Mice were sacrificed when tumors reached a size of 800 to 1500 mm^3. Tumor volumes are reported as the mean±SEM (“standard error of mean”) for each group.
Female NCr nu/nu mice were inoculated subcutaneously with HL-60 cells (n=10 for each group). Test compounds or vehicle were dosed IV as a single dose on day 1. Tumor size was measured at the times indicated in FIG. 3 using digital calipers. Tumor volume was calculated and was used to determine the delay in tumor growth. Mice were sacrificed when tumors reached a size of 2000 mm^3. Tumor volumes are reported as the mean±SEM for each group.

Substance: Trastuzumab-((EG2-MI (2.5%)-(10 kDa PHF-BA (28%)-(AF-HPA-Ala (8.4%) [Example 10]
- regressions, FIG. 4B (JIMT-1 cells; 2.0 mg/kg single IV dose): 100%
- tumor free survival at the end of the study, FIG. 4B (JIMT-1 cells; 2.0 mg/kg single IV dose): all of which remained tumor free survival
- tumor volume response (in words), FIG. 4B (JIMT-1 cells; 2 mg/kg single dose or […] weekly for 3 weeks, IV): reduction of tumor volume

Substance: Trastuzumab-((EG2-MI (2%)-(10 kDa PHF-BA (28%)-(AF-HPA-Ala (9%) [Example 14]
- IC50 (SKBR3): 0.02 nM
- IC50 (MCF7): 28.9 nM
- IC50 (JIMT1): 0.13 nM
- IC50 (BT474 [1]): 0.07 nM
- regressions, FIG. 4A (JIMT-1 cells; 2.0 mg/kg single IV dose): 100%
- tumor free survival, FIG. 4A (JIMT-1 cells; 2.0 mg/kg single IV dose): 100%
- tumor volume response (in words), FIG. 4A (JIMT-1 cells; single IV dose day 1): reduction of tumor volume
- ka (association or affinity rate constant) (hErbB2): 3.91 ± 0.3 × 10^5 M^−1s^−1
- kd (dissociation rate constant) (hErbB2): 2.56 ± 0.1 × 10^−5 s^−1
- IC50 (N87): 0.11 nM

Substance: Trastuzumab-((EG2-MI (2%)-(10 kDa PHF-BA (28%)-(AF-HPA-Ala (9%) [Example 15]
- IC50 (SKBR3): 0.01 nM
- IC50 (MCF7): 23.5 nM
- IC50 (JIMT1): 0.12 nM
- IC50 (BT474 [1]): 0.05 nM
- IC50 (N87): 0.11 nM
- complete regression out of 10 animals, FIG. 5 (NCI-N87 cells; 1 mg/kg single IV dose): 1
- partial regressions out of 10 animals, FIG. 5 (NCI-N87 cells; 1 mg/kg single IV dose): 7
- complete responses, FIG. 5 (NCI-N87 cells; 3 mg/kg single IV dose): 100
- tumor response (in words), FIG. 5 (NCI-N87 cells; 3 mg/kg single IV dose): complete regression of tumor volume

Substance: Trastuzumab-((EG2-MI (2%)-(10 kDa PHF-BA (28%)-(AF-HPA-Ala (9%) [Example 18C]
- IC50 (SKBR3): 0.02 nM
- IC50 (MCF7): 3.8 nM
- IC50 (JIMT1): 0.18 nM
- IC50 (BT474 [1]): 0.03 nM
- ka (association or affinity rate constant) (hErbB2): 4.25 ± 0.5 × 10^5 M^−1s^−1
- kd (dissociation rate constant) (hErbB2): 2.03 ± 0.1 × 10^−5 s^−1
- IC50 (N87): 0.06 nM

Substance: ado-trastuzumab emtansine [Kadcyla]
- IC50 (SKBR3): 0.23 nM
- IC50 (MCF7): 38.6 nM
- IC50 (HCC38): > 100 nM
- IC50 (BT474 [2]): 1.3 nM
- IC50 (NCI-H522): ~100 nM
- IC50 (NCI-H460): 68 nM
- IC50 (SKOV3): 5.6 nM
- IC50 (OVCAR3): ~85 nM
- IC50 (SNU5): ~100 nM
- IC50 (NCI-H1581): ~100 nM
- IC50 (NCI-H2122): 19 nM
- IC50 (KATOIII): > 100 nM
- IC50 (MDA-MB-175VII): 1.2 nM
- IC50 (NCI-H2170): 0.4 nM
- IC50 (MKN45): > 100 nM
- IC50 (T47D): 82.3 nM
- IC50 (JIMT1): 18 nM
- IC50 (ZR75-1): > 100 nM
- IC50 (BT474 [1]): 2.4 nM
- IC50 (MDA-MB-231): 27 nM
- IC50 (A549): > 100 nM
- IC50 (JIMT-1): 17.5 nM
- tumor volume response (in words), FIG. 4A (JIMT-1 cells; single IV dose day 1): increase of tumor volume
- tumor volume response (in words), FIG. 2 (JIMT-1 cells; single IV dose day 1, conjugates […], trastuzumab 10 mg/kg, Kadcyla 10 mg/kg): increase of tumor volume
- IC50 (MDA-MB-361): 0.27 nM and 0.33 nM
- IC50 (NCI-N87): 0.3 nM
- ka (association or affinity rate constant) (hErbB2): 4.61 ± 0.2 × 10^5 M^−1s^−1
- kd (dissociation rate constant) (hErbB2): 3.17 ± 0.9 × 10^−5 s^−1
- IC50 (HCC1187): 30 nM
- IC50 (CALU3): > 100 nM
- IC50 (MDA-MB-453): ~100 nM
- IC50 (N87): 0.09 nM
- IC50 (TOV21G): > 100 nM
- IC50 (SHP-77): > 100 nM
- IC50 (CAMA-1): 7.8 nM

Substance: Trastuzumab-((EG2-MI (1%))-(10 kDa PHF-GA (29%)-(AF-HPA-Ala (6%)) [Example 13]
- regressions, FIG. 1 (BT474 tumor fragments; 5 mg/kg single IV dose): 100%
- tumor free survival, FIG. 1 (BT474 tumor fragments; 5 mg/kg single IV dose): 80%
- tumor volume response (in words), FIG. 1 (BT474 tumor fragments; single IV dose day 1, conjugates […] and 5 mg/kg, trastuzumab 10 mg/kg): reduction of tumor volume

Substance: Lintuzumab-((EG2-MI (2%)-(10 kDa PHF-BA (30%)-(AF-HPA-Ala (9%)) [Example 8]
- antiproliferative activity compared to control conjugate (in words) (HL-60; CD33 expressing cell line HL-60): higher antiproliferative activity
- IC50 (HL-60; CD33 expressing cells, 72 h or 6 days incubation): 0.77 nM
- regressions, FIG. 3 (HL-60 cells; 20 mg/kg single IV dose): 100%
- tumor free survival on day 44, FIG. 3 (HL-60 cells; 20 mg/kg single IV dose, day 44): 70%
- tumor volume response (in words), FIG. 3 (HL-60 cells; single IV dose day 1, 20 mg/kg): reduction of tumor volume
